Assay results: PMC3596113 (Clinical cancer research : an official journal of the …, 2012)
Where two headings read alike, the source gives them in different places. Marks after values point to notes of the source that are not given here.

Assays:
[1] = system: phosphorylation of histone H2Ax in leukemia blast cells; assay: H2Ax phosphorylation in marrow blasts; type: in vivo, human
Chk2 = details: cited from earlier work
CDK1 = details: cited from earlier work
[2] = system: relapsed and refractory acute leukemias
[3] = AML patient 49, dose level 1, Ref
[4] = AML patient 73, dose level 5, Relapse 66 mo
[5] = Total, 24 adults, all dose levels
[6] = dose level 1, 10 mg/m^2 (n = 3) + cytarabine
[7] = dose level 2, 20 mg/m^2 (n = 3) + cytarabine
[8] = dose level 4, 56 mg/m^2 (n = 6) + cytarabine
[9] = dose level 5, 140 mg (n = 6) + cytarabine

With Nc1ccn([C@@H]2O[C@H](CO)[C@@H](O)[C@@H]2O)c(=O)n1 [cytarabine, reference compound] the “Samples with increase in H2Ax phosphorylation” value ([1]; marrow blasts, after 24 hours of continuous cytarabine infusion, before SCH 900776 (day 2)) was 2 of 10.

For Cn1cc(-c2cnn3c(N)c(Br)c([C@@H]4CCCNC4)nc23)cn1 [SCH 900776], the “Effect on Chk2” value (Chk2) is listed as “without substantial effect”, the “Sets of samples with enhanced H2Ax phosphorylation” value ([1]; patients treated with 40 mg/m^2 SCH 900776 or higher) is listed as 3 of 5 and the “Effect on CDK1” value (CDK1) is listed as “without substantial effect”. The “Response rate (CR plus CRi)” value ([2]; 1 CRi of 6 patients at SCH 900776 doses ≤ 20 mg/m^2) was 17%, the CR/CRi rate ([2]; 2 of 10 patients with AML with adverse cytogenetics) was 20% and the CR/CRi rate ([2]; 2 of 10 patients with a complex karyotype) was 20%. The CR/CRi rate ([2]; 3 of 8 with secondary AML) was 38%, the CR/CRi rate ([2]; 4/8 with relapsed AML) was 50% and the “Response rate (CR plus CRi)” value ([2]; 7 (5 CR, 2 CRi) of 18 patients at dose level 3 (40 mg/m^2) or higher) was 39%. The “CR/CRi rate in patients with AML” value ([2]; 8 of 21 patients with AML) was 38%, the “Overall response rate (CR plus CRi)” value ([2]; 8 of 24 patients, all dose levels) was 33% and the “Complete tumor clearance (CTC) by day 14, rate” value ([2]; 12 of 24 patients, all dose levels) was 50%. The “DFS (mo)” value ([2]; AML patient 25, dose level 3, Relapse 7 mo) was 25.2+ mo, the “DFS (mo)” value [2, 3] was 2.0 mo and the “Response (CR/CRi)” value [2, 3] was “CRi”. For the same compound, the “DFS (mo)” value ([2]; AML patient 52, dose level 3, primary Ref) was 2.2 mo, the “DFS (mo)” value ([2]; AML patient 55, dose level 3, primary Ref) was 11.3 mo and the “DFS (mo)” value ([2]; AML patient 60, dose level 4, Relapse 8 mo) was 22.4+ mo. The “DFS (mo)” value ([2]; AML patient 61, dose level 5, Relapse 19 mo) was 18.1+ mo, the “DFS (mo)” value ([2]; AML patient 70, dose level 4, primary Ref) was 9.7 mo and the “DFS (mo)” value [2, 4] was 0.2 mo. The “Response (CR/CRi)” value [2, 4] was “CRi”, the “Day 14 CTC (patients)” value [2, 5] was 12 and the “Response (CR/CRi) (patients)” value [2, 5] was 8 (5/3): all AML. For the same compound, the “Response in pts with prior cytarabine” value ([2]; Total, 24 adults, high = prior 2 g/m^2/72 h infusion or high-dose cytarabine) was 7 (6 high), the “Median duration of response” value ([2]; all patients with CR/CRi, range 0.2–27+) was 10 months and the Responders remaining alive ([2]; as of June 1, 2012, at 19+ to 30.5+ months) was 5 of the 8. The “Response rate (CR plus CRi)” value ([2]; at least 2 of 6 in each of dose levels 3 through 5) was no less than 33%, the “Complete tumor clearance (CTC) by day 14, rate” value ([2]; at least 3 of 6 per level beginning at dose level 3 (40 mg/m^2)) was no less than 50% and the “Day 14 CTC (patients)” value [2, 6] was 1. The “Response (CR/CRi) (patients)” value [2, 6] was 1 (0/1): AML, the “Response in pts with prior cytarabine” value ([2]; dose level 1, 10 mg/m^2 (n = 3), high = prior 2 g/m^2/72 h infusion or high-dose cytarabine) was 1 (high) ^a and the “Response in pts with prior cytarabine” value ([2]; dose level 2, 20 mg/m^2 (n = 3)) was 0. The “Day 14 CTC (patients)” value [2, 7] was 1, the “Response (CR/CRi) (patients)” value [2, 7] was 0 (0/0) and the “Day 14 CTC (patients)” value ([2]; dose level 3, 40 mg/m^2 (n = 6) + cytarabine) was 4. The “Response in pts with prior cytarabine” value ([2]; dose level 3, 40 mg/m^2 (n = 6), high = prior 2 g/m^2/72 h infusion or high-dose cytarabine) was 2 (both high), the “Day 14 CTC (patients)” value [2, 8] was 3 and the “Response (CR/CRi) (patients)” value [2, 8] was 2 (2/0): both AML. For the same compound, the “Response in pts with prior cytarabine” value ([2]; dose level 4, 56 mg/m^2 (n = 6), high = prior 2 g/m^2/72 h infusion or high-dose cytarabine) was 2 (1 high), the “Day 14 CTC (patients)” value [2, 9] was 3 and the “Response (CR/CRi) (patients)” value [2, 9] was 2 (1/1): both AML. The “Response in pts with prior cytarabine” value ([2]; dose level 5, 140 mg (n = 6), high = prior 2 g/m^2/72 h infusion or high-dose cytarabine) was 2 (both high), the “CR/CRi in patients who had day 14 CTC” value ([2]; human, in vivo) was 8 of the 12 and the “CR/CRi in patients who had residual leukemia on day 14” value ([2]; human, in vivo) was “none”. For the same compound, the CR/CRi ([2]; patients with FLT3-ITD AML) was “none”.
